Reference: patent publication US5451573A, “Substituted cyclohexane derivatives for the treatment of diseases” (Hoechst Aktiengesellschaft, priority 1992, dated 1995)

Test system: glucose-6-phosphatase
Experiment: not given
Settings: described in the literature; cited from earlier work

Compound	non-specific inhibitor of glucose-6-phosphatase (in words)
O=C(O)c1cc(SSc2ccc([N+](=O)[O-])c(C(=O)O)c2)ccc1[N+](=O)[O-] [5,5'-dithiobis-2-nitrobenzoic acid]	non-specific inhibitors of glucose-6-phosphatase
O=C(CCc1ccc(O)cc1)c1c(O)cc(O)cc1O[C@@H]1O[C@H](CO)[C@@H](O)[C@H](O)[C@H]1O [phlorhizin]	non-specific inhibitors of glucose-6-phosphatase
CC(=O)Oc1ccccc1C=Cc1ccccc1N=C=S [2-isothiocyanato-2'-acetoxystilbene]	non-specific inhibitors of glucose-6-phosphatase
S=C=Nc1ccccc1C=Cc1ccccc1N=C=S [2,2'-diisothiocyanatostilbene]	non-specific inhibitors of glucose-6-phosphatase

Target: T1, glucose-6-phosphatase system (Rattus norvegicus, UniProt F7EWB7)
T1 construct: from tissue; host or cells: liver microsomes of male Wistar rats
T1 sequence (F7EWB7 1-429): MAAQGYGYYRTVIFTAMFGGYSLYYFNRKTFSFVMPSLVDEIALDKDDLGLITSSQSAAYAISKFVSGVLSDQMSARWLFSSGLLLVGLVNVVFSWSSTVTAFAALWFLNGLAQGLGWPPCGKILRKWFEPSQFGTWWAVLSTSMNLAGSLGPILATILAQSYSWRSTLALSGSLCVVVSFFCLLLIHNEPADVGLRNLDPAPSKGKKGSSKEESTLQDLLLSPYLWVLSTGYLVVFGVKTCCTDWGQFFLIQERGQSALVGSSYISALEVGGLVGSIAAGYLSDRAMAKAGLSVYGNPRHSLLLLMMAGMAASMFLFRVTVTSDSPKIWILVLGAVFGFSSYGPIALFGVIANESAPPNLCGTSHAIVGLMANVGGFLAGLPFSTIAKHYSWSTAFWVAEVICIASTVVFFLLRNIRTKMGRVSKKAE
Experiment: glucose-6-phosphatase enzyme test in liver microsomes (phosphate released from glucose-6-phosphate)
Assay type: biochemical, male Wistar rats
Settings: not given
Description: The action of the compounds according to the invention on the glucose-6-phosphatase system was investigated in an enzyme test in liver microsomes.
Fresh liver organs of male Wistar rats were used for the preparation of the microsome fraction containing the glucose-6-phosphatase and processed as described in the literature [Canfield, W. K. and Arion, W. J., J. Biol. Chem. 263, 7458-7460, (1988)]. This microsome fraction can be stored at -70° C. for at least 2 months without significant loss of activity.
The detection of the glucose-6-phosphatase activity was carried out as indicated in the literature (Arion, W. J. in Methods Enzymol. 174, Academic Press 1989, pages 58-67) by determination of the phosphate released from glucose-6-phosphate. 0.1 ml of test mixture contained glucose-6-phosphate (1 mmol/l), the test substance, 0.1 mg of microsome fraction and 100 mmol/l of HEPES buffer (4-(2-hydroxyethyl)piperazine-1-ethanesulfonic acid), pH 7.0. The reaction was started by addition of the enzyme. After 20 min had passed at room temperature, the reaction was stopped by addition of 0.2 ml of phosphate reagent. The sample was incubated at 37° C. for 30 min, and the absorption (A) of the blue color was then measured at 570 nm. The inhibitory activity of the test substance resulted by comparison with a control reaction, which contained no test substance, according to the formula [formula]

Compound	inhibitor of the glucose-6-phosphatase system (in words)
O=C(/C=C/c1ccc(O)c(O)c1)O[C@@H]1C[C@](O)(C(=O)O)C[C@@H](O)[C@H]1O [Compound 17, chlorogenic acid]	inhibitors of the glucose-6-phosphatase system

Same assay, conditions: Concentration 1 × 10^-3 M; rat liver microsome fraction, glucose-6-phosphate 1 mmol/l, pH 7.0; read-out: Inhibition [%]

inhibition at 1000 µM	Compound
28%	O=C(/C=C/c1ccc(O)cc1)O[C@@H]1CC(CP(=O)(O)O)=C[C@@H](O)[C@H]1O [Compound 28]
30%	O=C(O)C[C@]1(O)C[C@@H](O)[C@@H](O)[C@H](OC(=O)/C=C/c2ccc(O)cc2)C1 [Compound 23]
20%	COc1sccc1/C=C/C(=O)O[C@@H]1C[C@](O)(C(=O)O)C[C@@H](O)[C@H]1O [Compound 14]
20%	O=C(/C=C/c1cccnc1)O[C@@H]1C[C@](O)(C(=O)O)C[C@@H](O)[C@H]1O [Compound 11]
45%	O=C(O)CC[C@]1(O)C[C@@H](O)[C@@H](O)[C@H](OC(=O)/C=C/c2ccc(O)cc2)C1 [Compound 24]
30%	O=C(/C=C/c1ccc(O)cc1)O[C@@H]1C[C@](O)(C(=O)O)[C@@H](O)[C@@H](O)[C@H]1O [Compound 20]

Second part, the molecule before the results:

Compound	inhibition at 1000 µM
O=C(/C=C/c1ccc([N+](=O)[O-])cc1)O[C@@H]1C[C@](O)(C(=O)O)C[C@@H](O)[C@H]1O [Compound 16]	35%
O=C(/C=C/c1ccc(O)c(F)c1)O[C@@H]1C[C@](O)(C(=O)O)C[C@@H](O)[C@H]1O [Compound 10]	50%
O=C(/C=C/c1ccc(O)cc1)O[C@@H]1C[C@@](O)(C(=O)O)[C@H](O)[C@@H](O)[C@H]1O [Compound 20α]	10%
O=C(/C=C/c1ccc(O)cc1)O[C@@H]1C[C@H](C(=O)O)CC[C@H]1O [Compound 22]	20%
O=C(/C=C/c1ccc(O)cc1)N[C@@H]1CC(C(=O)O)=C[C@@H](O)[C@H]1O [Compound 26]	15%

Same assay, conditions: pH 7

Compound	inhibition at 1000 µM
COP(=O)(CC1=C[C@@H](O)[C@@H](O)[C@H](OC(=O)/C=C/c2ccc(O)cc2)C1)OC [Compound 27]	15%

Same assay, conditions: rat liver microsome fraction, glucose-6-phosphate 1 mmol/l, pH 7.0, 20 min room temperature; concentration at which 50 % inhibition is printed; read-out: Concentration [M] giving Inhibition 50 [%]

IC50	Compound
0.00031 M	O=C(/C=C/c1cccc(O)c1O)O[C@@H]1C[C@](O)(C(=O)O)C[C@@H](O)[C@H]1O [Compound 2]
0.00068 M	O=C(/C=C/c1ccc(O)cc1O)O[C@@H]1C[C@](O)(C(=O)O)C[C@@H](O)[C@H]1O [Compound 4]
0.00068 M	O=C(/C=C/c1cc(O)ccc1O)O[C@@H]1C[C@](O)(C(=O)O)C[C@@H](O)[C@H]1O [Compound 3]
0.00046 M	O=C(/C=C/c1c(O)ccc2ccccc12)O[C@@H]1C[C@](O)(C(=O)O)C[C@@H](O)[C@H]1O [Compound 15]
0.00023 M	O=C(/C=C/c1ccc(O)cc1)O[C@@H]1C[C@H](C(=O)O)C[C@@H](O)[C@H]1O [Compound 21]
0.00025 M	O=C(/C=C/c1ccc(O)cc1)O[C@@H]1CC(C(=O)O)=C[C@@H](O)[C@H]1O [Compound 25]
0.00068 M	O=C(O[C@@H]1C[C@](O)(C(=O)O)C[C@@H](O)[C@H]1O)c1ccc(OCc2ccccc2)cc1 [Compound 18]
0.00041 M	COc1cc(/C=C/C(=O)O[C@@H]2C[C@](O)(C(=O)O)C[C@@H](O)[C@H]2O)ccc1O [Compound 5]
0.00026 M	O=C(/C=C/c1ccc(O)cc1)O[C@@H]1C[C@](O)(C(=O)O)C[C@@H](O)[C@H]1O [Compound 8]

Continued, molecule first:

Compound	IC50
COc1ccc(/C=C/C(=O)O[C@@H]2C[C@](O)(C(=O)O)C[C@@H](O)[C@H]2O)cc1O [Compound 6]	0.00046 M
O=C(/C=C/c1ccccc1O)O[C@@H]1C[C@](O)(C(=O)O)C[C@@H](O)[C@H]1O [Compound 9]	0.00048 M
O=C(/C=C/c1cccs1)O[C@@H]1C[C@](O)(C(=O)O)C[C@@H](O)[C@H]1O [Compound 12]	0.00038 M
O=C(/C=C/c1ccc(O)c(O)c1)O[C@@H]1C[C@](O)(C(=O)O)C[C@@H](O)[C@H]1O [Compound 17, chlorogenic acid]	0.00023 M
O=C(/C=C/c1ccc(O)c(O)c1O)O[C@@H]1C[C@](O)(C(=O)O)C[C@@H](O)[C@H]1O [Compound 1]	0.00031 M
O=C(/C=C/c1ccc(O)c(F)c1)O[C@@H]1C[C@](O)(C(=O)O)C[C@@H](O)[C@H]1O [Compound 10]	0.001 M
O=C(/C=C/c1cccc(O)c1)O[C@@H]1C[C@](O)(C(=O)O)C[C@@H](O)[C@H]1O [Compound 7]	0.00053 M
O=C(/C=C/c1ccsc1)O[C@@H]1C[C@](O)(C(=O)O)C[C@@H](O)[C@H]1O [Compound 13]	0.00078 M
O=C(O[C@@H]1C[C@](O)(C(=O)O)C[C@@H](O)[C@H]1O)c1ccc(O)cc1 [Compound 19]	0.00092 M
COc1ccc(/C=C/C(=O)O[C@@H]2C[C@](O)(C(=O)O)C[C@@H](O)[C@H]2O)cc1OC [Compound 17α]	0.00068 M

Test system: lipoxygenase
Experiment: not given
Settings: M. Nishizawa et al., Chem. Pharm. Bull. 34(3), 1419 (1986); cited from earlier work

Compound	inhibitor of lipoxygenase (in words)
O=C(/C=C/c1ccc(O)c(O)c1)O[C@@H]1C[C@](O)(C(=O)O)C[C@@H](O)[C@H]1O [Compound 17, chlorogenic acid]	inhibitor of lipoxygenase
